# Values of other authors, collected in US9763924B2, “Aminoester derivatives” (CHIESI FARMACEUTICI S.P.A., priority 2014, dated 2017).
# Test system: COPD patients
# [1] = patients with severe disease who have frequent exacerbations and mucus hypersecretion
smiles,measurement,setting,value
O=C(Nc1c(Cl)cncc1Cl)c1ccc(OC(F)F)c(OCC2CC2)c1 [roflumilast],reduction of the numbers of neutrophils in sputum,"COPD patients, oral, given over 4 weeks",36%
same,improvement of FEV 1,[1],approximately 50 mL
same,reduction of exacerbation,[1],about 15%
